Read-outs that look alike come from different tables or passages of the source.
Experiments:
Type in all cases: cell-based
[1] = system: AsPC-1 (homozygous mutant KRAS G12D human pancreatic cell line); test: KRAS 3D-Cell Proliferation Assay, AsPC-1 (Example 503); conditions: AsPC-1 3D culture, 7 days, CellTiter-Glo 3D, read-out: Prolif AsPC-1 3D ATP IC50
Experimental: Example 503: KRAS 3D-Cell Proliferation Assays. Cellular potencies of compounds are assessed by evaluating inhibition of proliferation in 3D cultures of homozygous mutant KRAS G12D human pancreatic cell lines (AsPC-1 and HPAC) as compared to a KRAS wild type human lung adenocarcinoma cell line (PC-9 and/or H1975). Cells are seeded into 384-well black round-bottom, ultra-low attachment assay plates in 50 uL cell growth medium (RPMI-1640 with 10% fetal bovine serum and 2 mM L-glutamine). After overnight incubation at 37° C. and 5% CO2, compounds solubilized in DMSO are added as dilution series to the wells in a total volume of 150 nL (0.3% DMSO final). The cells are incubated for 7 days at 37° C. and 5% CO2. Cell proliferation is quantitated by addition of 40 uL/well of CellTiter-GloÒ 3D (Promega), and the well contents are mixed 20× at high speed using liquid handling automation workstation (Bravo with 384-well head) and centrifuged at 1500 rpm for 2 minutes to eliminate bubbles. This reagent in combination with mechanical disruption releases the cellular ATP to promote activity in a luciferase-based enzyme/substrate chemiluminescent detection system. After a 30-minute incubation under ambient conditions with shaking and an additional 10 minutes without shaking, the luminescence is read on a plate reader (e.g., EnVision [PerkinElmer]). The results are normalized to percent inhibition based on the following control samples: DMSO (0% inhibition) and 1 μM staurosporine (100% inhibition). The normalized luminescence results are plotted against compound concentration, and the data are fit to a 4-parameter Hill equation to determine the IC50 values.

[2] = system: HPAC (homozygous mutant KRAS G12D human pancreatic cell line); test: KRAS 3D-Cell Proliferation Assay, HPAC (Example 503); conditions: HPAC 3D culture, 7 days, CellTiter-Glo 3D, read-out: Prolif HPAC 3D ATP IC50
Procedure, shortened: (§1)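 3D culture, ultra-low attachment wells; RPMI-1640/10% FBS/2 mM L-glutamine. Overnight settle, then compound series, 0.3% DMSO final, 7 d, 37° C, 5% CO2. Readout: CellTiter-Glo 3D luminescence. % inhibition vs DMSO (0%) and 1 μM staurosporine (100%); IC50 via 4-parameter Hill.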

[3] = system: H1975 (KRAS wild type human lung adenocarcinoma cell line); test: KRAS 3D-Cell Proliferation Assay, H1975 (Example 503); conditions: H1975 3D culture, 7 days, CellTiter-Glo 3D, read-out: Prolif H1975 3D ATP IC50
Procedure, shortened: as §1

IC50 [1] [nM] | IC50 [3] [nM] | SMILES | IC50 ([1]; Homo sapiens, ASPC1, 168 h) [nM] | IC50 ([2]; Homo sapiens, HPAC, 168 h) [nM] | IC50 ([3]; Homo sapiens, NCI-H1975, 168 h) [nM] | IC50 [2] [nM]
 |  | Cc1c(F)c(N)c(F)c(-c2nc3c4c(nc(OCC5(CN6CCOCC6)CC5)nc4c2F)N2C[C@H]4CC[C@H](N4)[C@H]2[C@H](C)O3)c1C(F)(F)F [Compound 224, 2,6-Difluoro-3-((5S,5aS,6S,9R)-1-fluoro-5-methyl-12-((1-(morpholinomethyl)cyclopropyl)methoxy)-5a,6,7,8,9,10-hexahydro-5H-4-oxa-3,10a,11,13,14-pentaaza-6,9-methanonaphtho[1,8-ab]heptalen-2-yl)-5-methyl-4-(trifluoromethyl)aniline] | 3.5 | 2.72 | 711 | 
 |  | Cc1c(F)c(N)cc(-c2nc3c4c(nc(OC[C@@]56CCCN5C/C(=C\F)C6)nc4c2F)N2C[C@H]4CC[C@H](N4)[C@H]2[C@H](C)O3)c1C(F)(F)F [Compound 64, 2-fluoro-5-((5S,5aS,6S,9R)-1-fluoro-12-(((S,Z)-2-(fluoromethylene)tetrahydro-1H-pyrrolizin-7a(5H)-yl)methoxy)-5-methyl-5a,6,7,8,9,10-hexahydro-5H-4-oxa-3,10a,11,13,14-pentaaza-6,9-methanonaphtho[1,8-ab]heptalen-2-yl)-3-methyl-4-(trifluoromethyl)aniline] | 0.9 | 0.46 | 235 | 
 |  | Cc1nc(N)cc(-c2nc3c4c(nc(OCC5(CN6C7CCC6COC7)CC5)nc4c2F)N2C[C@H]4CC[C@H](N4)[C@H]2[C@H](C)O3)c1C(F)(F)F [Compound 206, 4-((5S,5aS,6S,9R)-12-((1-((3-Oxa-8-azabicyclo[3.2.1]octan-8-yl)methyl)cyclopropyl)methoxy)-1-fluoro-5-methyl-5a,6,7,8,9,10-hexahydro-5H-4-oxa-3,10a,11,13,14-pentaaza-6,9-methanonaphtho[1,8-ab]heptalene-2-yl)-6-methyl-5-(trifluoromethyl)pyridin-2-amine] | 3.6 | 3.16 | 2840 | 
 |  | Cc1c(F)c(N)cc(-c2nc3c4c(nc(OCC56CCN(C)C5COC6)nc4c2F)N2C[C@H]4CC[C@H](N4)[C@H]2[C@H](C)O3)c1C(F)(F)F (single isomer, unassigned) [258 (isomer 1)] | 8.1 | 5 | 1560 | 
 |  | Cc1nc(N)cc(-c2nc3c4c(nc(OC[C@@]56CCCN5CC5(CC5(F)F)C6)nc4c2F)N2C[C@H]4CC[C@H](N4)[C@H]2[C@H](C(F)(F)F)O3)c1C(F)(F)F (stereo partly drawn) [Compound 254, 4-((5R,5aS,6S,9R)-12-(((7a′S)-2,2-Difluorodihydro-1′H,3′H-spiro[cyclopropane-1,2′-pyrrolizin]-7a′(5′H)-yl)methoxy)-1-fluoro-5-(trifluoromethyl)-5a,6,7,8,9,10-hexahydro-5H-4-oxa-3,10a,11,13,14-pentaaza[6,9]methanonaphtho[1,8-ab]heptalene-2-yl)-6-methyl-5-(trifluoromethyl)pyridin-2-amine] | 2.5 | 1.86 | 139 | 
 |  | Cc1nc(N)cc(-c2nc3c4c(nc(OC[C@@H]5CC[C@H]6COCCN65)nc4c2F)N2C[C@H]4CC[C@H](N4)[C@H]2[C@H](C)O3)c1C(F)(F)F [Compound 112, 4-((5S,5aS,6S,9R)-1-fluoro-12-(((6S,8aS)-hexahydro-1H-pyrrolo[2,1-c][1,4]oxazin-6-yl)methoxy)-5-methyl-5a,6,7,8,9,10-hexahydro-5H-4-oxa-3,10a,11,13,14-pentaaza-6,9-methanonaphtho[1,8-ab]heptalen-2-yl)-6-methyl-5-(trifluoromethyl)pyridin-2-amine] | 31.6 | 7.59 | 1470 | 
0.6 | 374 | Cc1c(F)c(N)cc(-c2nc3c4c(nc(OC[C@]5(CN6CC7(COC7)C6)CC5(F)F)nc4c2F)N2C[C@H]4CC[C@H](N4)[C@H]2[C@H](C)O3)c1C(F)(F)F (mixture of isomers) [165 a] |  |  |  | 0.63
 |  | Cc1c(F)c(N)cc(-c2nc3c4c(nc(OC[C@@H]5[C@@H]6CCN5CCO6)nc4c2F)N2C[C@H]4CC[C@H](N4)[C@H]2[C@H](C)O3)c1C(F)(F)F [Compound 136, 5-((5S,5aS,6S,9R)-12-(((5S,8R)-4-Oxa-1-azabicyclo[3.2.1]octan-8-yl)methoxy)-1-fluoro-5-methyl-5a,6,7,8,9,10-hexahydro-5H-4-oxa-3,10a,11,13,14-pentaaza-6,9-methanonaphtho[1,8-ab]heptalen-2-yl)-2-fluoro-3-methyl-4-(trifluoromethyl)aniline] | 200 | 67.5 | 12300 | 
 |  | C[C@@H]1Oc2nc(-c3cc(N)c(F)c(Cl)c3C(F)(F)F)c(F)c3nc(OC[C@@]45CCCN4C[C@H](F)C5)nc(c23)N2C[C@H]3CC[C@H](N3)[C@@H]12 [Compound 104, 3-Chloro-2-fluoro-5-((5S,5aS,6S,9R)-1-fluoro-12-(((2R,7aS)-2-fluorotetrahydro-1H-pyrrolizin-7a(5H)-yl)methoxy)-5-methyl-5a,6,7,8,9,10-hexahydro-5H-4-oxa-3,10a,11,13,14-pentaaza-6,9-methanonaphtho[1,8-ab]heptalen-2-yl)-4-(trifluoromethyl)aniline] | 1.4 | 0.65 | 221 | 
 |  | Cc1nc(N)cc(-c2nc3c4c(nc(OC[C@@H]5CC[C@H]6COCCN65)nc4c2F)N2C[C@H]4CC[C@H](N4)[C@H]2[C@H](C(F)(F)F)O3)c1C(F)(F)F [Compound 253, 4-((5R,5aS,6S,9R)-1-Fluoro-12-(((6S,8aS)-hexahydro-1H-pyrrolo[2,1-c][1,4]oxazin-6-yl)methoxy)-5-(trifluoromethyl)-5a,6,7,8,9,10-hexahydro-5H-4-oxa-3,10a,11,13,14-pentaaza-6,9-methanonaphtho[1,8-ab]heptalene-2-yl)-6-methyl-5-(trifluoromethyl)pyridin-2-amine] | 64.6 | 19.8 | 5080 | 
 |  | Cc1c(F)c(N)cc(-c2nc3c4c(nc(OCC5(CN6CCO[C@H](C)C6)CC5)nc4c2F)N2C[C@H]4CC[C@H](N4)[C@H]2[C@H](C)O3)c1C(F)(F)F [Compound 168, 2-Fluoro-5-((5S,5aS,6S,9R)-1-fluoro-5-methyl-12-((1-(((R)-2-methylmorpholino)methyl)cyclopropyl)methoxy)-5a,6,7,8,9,10-hexahydro-5H-4-oxa-3,10a,11,13,14-pentaaza-6,9-methanonaphtho[1,8-ab]heptalen-2-yl)-3-methyl-4-(trifluoromethyl)aniline] | 0.7 | 0.472 | 656 | 
 |  | Cc1cc(N)c(F)c(-c2nc3c4c(nc(OC[C@@H]5CC[C@H]6COCCN65)nc4c2F)N2C[C@H]4CC[C@H](N4)[C@H]2[C@H](C)O3)c1C(F)(F)F [Compound 97, 2-Fluoro-3-((5S,5aS,6S,9R)-1-fluoro-12-(((6S,8aS)-hexahydro-1H-pyrrolo[2,1-c][1,4]oxazin-6-yl)methoxy)-5-methyl-5a,6,7,8,9,10-hexahydro-5H-4-oxa-3,10a,11,13,14-pentaaza-6,9-methanonaphtho[1,8-ab]heptalen-2-yl)-5-methyl-4-(trifluoromethyl)aniline] | 10.1 | 3.21 | 573 | 
 |  | Cc1c(F)c(N)cc(-c2nc3c4c(nc(OC[C@@]56CCCN5C[C@H](F)C6)nc4c2F)N2C[C@H]4CC[C@H](N4)[C@@H]2[C@@H](C(F)(F)F)O3)c1C(F)(F)F [Compound 248, 2-Fluoro-5-((5S,5aR,6S,9R)-1-fluoro-12-(((2R,7aS)-2-fluorotetrahydro-1H-pyrrolizin-7a(5H)-yl)methoxy)-5-(trifluoromethyl)-5a,6,7,8,9,10-hexahydro-5H-4-oxa-3,10a,11,13,14-pentaaza-6,9-methanonaphtho[1,8-ab]heptalene-2-yl)-3-methyl-4-(trifluoromethyl)aniline] | 27.9 | 12.5 | 244 | 
 |  | Cc1c(F)c(N)cc(-c2nc3c4c(nc(OC[C@@]56CCCN5C[C@H](F)C6)nc4c2F)N2C[C@H]4CC[C@H](N4)[C@H]2[C@H](C)O3)c1CC(F)F [Compound 75, 4-(2,2-Difluoroethyl)-2-fluoro-5-((5S,5aS,6S,9R)-1-fluoro-12-(((2R,7aS)-2-fluorotetrahydro-1H-pyrrolizin-7a(5H)-yl)methoxy)-5-methyl-5a,6,7,8,9,10-hexahydro-5H-4-oxa-3,10a,11,13,14-pentaaza-6,9-methanonaphtho[1,8-ab]heptalen-2-yl)-3-methylaniline] | 5.2 | 2.77 | 797 | 

Source: patent US12338256B2, “Aza-tetracyclic oxazepine compounds and uses thereof” (Genentech, Inc., priority 2022, dated 2025)
